For 85 molecules, AC40 results are on record in PubChem BioAssay AID652053 (Broad Institute, 2013).

The test has as its system Huh7 psiCHECK-miR122 Renilla luciferase reporter, 48 h. The test can be described thus: suppression of miR-122 activity, Renilla luciferase sensor – cell-based, Huh7 psiCHECK-miR122, cherry-pick, dose response (AID 652053).

Regarding `Cc1ccc(NS(=O)(=O)c2cc3c4c(c2)CC(=O)N4CCC3)cc1C`, the AC40 is 2.61 µM.

For `CCCNC(=O)NC[C@@H]1[C@@H](c2ccc(C3=CCCCC3)cc2)[C@H](CO)N1C(C)=O`, the AC40 was 2.47 µM.

With `CCC(C)c1ccc(NC(=S)NCc2cccs2)cc1` (stereo not given), the AC40 was 10.1 µM.

For `O=C(Nc1nc2ccc(S(=O)(=O)N3CCCC3)cc2s1)C1CCCCC1`, the AC40 is 14.8 µM.

As for `Cc1ccc(C(=O)NCCSc2ccccc2)cc1S(=O)(=O)Nc1ccccc1`, the AC40 was 4.09 µM.

Regarding `Cc1ccc(S(=O)(=O)N(C)C[C@H]2Oc3ccc(NC(=O)CCC(F)(F)F)cc3C(=O)N([C@@H](C)CO)C[C@H]2C)cc1`, the AC40 was 12.1 µM.

As to `CCOCC(=O)Nc1c(C(=O)N2CCN(c3ncccn3)CC2)oc2ccccc12`, the AC40 was 0.431 µM.

In the case of `Cc1ccc(S(=O)(=O)Nc2ccc3c(c2)CC(=O)N([C@H](C)CO)C[C@H](C)[C@H](CN(C)Cc2ccc(C(=O)Nc4ccccc4N)cc2)O3)cc1`, the AC40 was 6.79 µM.

`Cc1cc(C)c(C)c(S(=O)(=O)NC2CCCCC2)c1C`: the AC40 was 0.607 µM.

Turning to `CCCNC(=O)NC[C@@H]1[C@@H](c2ccc(C3=CCCC3)cc2)[C@@H](CO)N1C(=O)CC`, the AC40 is 16.9 µM.

On to `C[C@H](CO)N1C[C@H](C)[C@@H](CN(C)Cc2ccc(C(F)(F)F)cc2)Oc2c(NC(=O)c3nc4ccccc4s3)cccc2C1=O`, for which the AC40 is 2.32 µM.

Take `CCOC(=O)c1cc(S(=O)(=O)NCCc2ccccc2)cn1C`: the AC40 is 3.84 µM.

Regarding `O=C(COc1ccc(S(=O)(=O)NC2CCCCC2)cc1)Nc1ccc2c(c1)OCCO2`, the AC40 is 7.82 µM.

Regarding `Cc1ccc(NS(=O)(=O)c2cc(C(=O)NCc3ccccn3)ccc2Cl)cc1C`, the AC40 was 2.91 µM.

`O=C(CSc1nnc(-c2cc3ccccc3cc2O)n1Cc1ccco1)c1ccc(F)cc1`: the AC40 was 5.74 µM.

In the case of `C[C@H](CO)N1C[C@H](C)[C@@H](CN(C)Cc2ccc(Cl)c(Cl)c2)Oc2c(NS(=O)(=O)c3cccs3)cccc2C1=O`, the AC40 is 2.7 µM.

Take `CC(C)CCC(CC(C)O)C(=O)NNC(=S)Nc1ccccc1` (stereo not given): the AC40 was 9.74 µM.

Turning to `Cc1ccc(SCCNC(=O)c2ccc(C)c(S(=O)(=O)Nc3cccc(C)c3)c2)cc1`, the AC40 is 3.74 µM.

With `CC(=O)Nc1ccc(S(=O)(=O)C(C#N)c2nc3ccccc3nc2NCCO)cc1` (stereo not given), the AC40 was 25.9 µM.

For the molecule `CC(NC(=S)Nc1ccc(Cl)cc1Cl)C(c1cccs1)N1CCCC1` (stereo not given), the AC40 is 23.8 µM.

Turning to `O=C(Nc1cc(S(=O)(=O)Nc2ccccc2F)ccc1Cl)c1ccc(F)cc1F`, the AC40 is 7.6 µM.

As for `COc1ccc(C2CCCCCN2Cc2nc3ccccc3c(=O)n2CC(N)=O)cc1` (stereo not given), the AC40 was 9.73 µM.

As for `CN1c2ccc(-c3ccccc3F)cc2[C@H]2[C@H](CCN2S(=O)(=O)c2ccccc2F)[C@H]1CO`, the AC40 was 2.4 µM.

For `CCc1ccc(-c2cc(C)no2)cc1S(=O)(=O)NCCc1ccc(S(N)(=O)=O)cc1`, the AC40 is 4.08 µM.

As for `CC(C)C(=O)NC(=S)Nc1ccc(S(=O)(=O)Nc2ccccc2)cc1`, the AC40 is 0.461 µM.

Consider `CCOc1ccc(NS(=O)(=O)c2cc(NC(=O)C3CC3)ccc2C)cc1Br`, for which the AC40 is 2.15 µM.

For `COc1ccc(C(=O)NC(=S)Nc2ccc(S(=O)(=O)Nc3cc(OC)ncn3)cc2)cc1`, the AC40 was 4.82 µM.

With `Cc1ccc(NC(=S)NCc2ccc(F)cc2)cc1`, the AC40 was 20.3 µM.

As for `C[C@H](CO)N1C[C@H](C)[C@@H](CN(C)C(=O)Nc2ccc(C(F)(F)F)cc2)Oc2c(NC(=O)C3CCOCC3)cccc2C1=O`, the AC40 was 29.8 µM.

With `CC1CC(C)CN(S(=O)(=O)c2ccc(NC(=O)c3ccc(=O)[nH]c3)cc2)C1` (stereo not given), the AC40 was 12 µM.

For `Cc1ccc(NC(=O)C(OC(=O)c2ccc(F)cc2)c2ccccc2)cc1Cl` (stereo not given), the AC40 is 2.85 µM.

As for `COc1ccc(S(=O)(=O)N2CC[C@@H]3[C@@H](CO)N(C)c4ccc(-c5ccc(F)cc5)cc4[C@@H]32)cc1`, the AC40 is 6.93 µM.

Consider `COc1cc(S(=O)(=O)NC2CCCC2)c(OC)cc1Cl`, for which the AC40 was 2.6 µM.

`C[C@H](CO)N1C[C@H](C)[C@H](CN(C)Cc2ccc(C(=O)Nc3ccccc3N)cc2)Oc2ccc(NC(=O)Nc3cccc4ccccc34)cc2CC1=O`: the AC40 was 16.9 µM.

`CCOC(=O)c1c(S(=O)(=O)Nc2cccc(Cl)c2)c(C)n(C)c1C`: the AC40 is 1.08 µM.

Turning to `CCOc1ccccc1CN(Cc1ccco1)S(=O)(=O)c1ccc(-n2cnnn2)c(OC)c1`, the AC40 was 4.36 µM.

`O=C(Nc1sc2c(c1C(=O)O)CCCCC2)c1ccco1`: the AC40 is 2.49 µM.

`COc1ccc(S(=O)(=O)N(CCc2ccccc2)CC(=O)N2CCOCC2)cc1`: the AC40 is 17.1 µM.

For the molecule `COc1ccc(NS(=O)(=O)c2cc(NC(=O)c3ccc(=O)[nH]c3)ccc2C)cc1`, the AC40 is 2.64 µM.

For the molecule `C[C@@H]1CN([C@@H](C)CO)C(=O)c2cccc(NC(=O)C3CCCCC3)c2O[C@@H]1CN(C)Cc1ccc(C(=O)Nc2ccccc2N)cc1`, the AC40 was 6.92 µM.

In the case of `CCOc1cc(C)c(Cl)cc1S(=O)(=O)NCc1ccco1`, the AC40 is 1.79 µM.

On to `CCOc1ccc(Cl)cc1S(=O)(=O)NC1CCCC1`, for which the AC40 is 2.27 µM.

`COc1ccc(NS(=O)(=O)c2ccc3ccccc3c2)c2ncccc12`: the AC40 is 5.19 µM.

`Cc1ccccc1-c1cnc(C(O)c2ccc(F)c(F)c2)[nH]1` (stereo not given): the AC40 was 6.78 µM.

As to `CCOC(=O)c1c(NC(=O)c2ccccc2N(C)S(=O)(=O)c2ccccc2)sc2c1CCCC2`, the AC40 was 13.3 µM.

For `COc1ccc(S(=O)(=O)Nc2ccc(F)cc2)cc1N(C)S(=O)(=O)c1ccc(Cl)cc1`, the AC40 was 4.94 µM.

Consider `COc1ccc(NS(=O)(=O)c2cc(NC(=O)Cc3c(F)cccc3Cl)ccc2OC)cc1`, for which the AC40 was 3.67 µM.

For `Cc1cc(S(=O)(=O)Nc2cc(C)c(O)c(C)c2)c(C)s1`, the AC40 was 24.9 µM.

Consider `O=C(N/N=C/c1ccc(Cl)s1)C(O)c1ccccc1` (stereo not given), for which the AC40 was 1.17 µM.

Take `CCCCCCNS(=O)(=O)c1ccc(Cl)s1`: the AC40 is 13.9 µM.

For `Cc1ccccc1NS(=O)(=O)c1cc(C(=O)Nc2cccnc2)ccc1C`, the AC40 was 5.17 µM.

With `C[C@H]1CN([C@@H](C)CO)C(=O)c2cccc(NC(=O)C3CCCCC3)c2O[C@@H]1CN(C)Cc1ccc(C(F)(F)F)cc1`, the AC40 is 0.547 µM.

On to `C/C(=N\Nc1ccccn1)c1ccc(S(=O)(=O)NCc2ccco2)cc1`, for which the AC40 was 6.97 µM.

Consider `Cc1ccc(S(=O)(=O)Nc2ccc3c(c2)C(=O)N([C@@H](C)CO)C[C@H](C)[C@H](CN(C)C(=O)Nc2ccc(F)cc2)OCCCC[C@@H](C)O3)cc1`, for which the AC40 is 1.86 µM.

Turning to `COc1ccc(NS(=O)(=O)c2cc(C)ccc2OC)cc1OC`, the AC40 is 3.76 µM.

With `COc1c(S(=O)(=O)NCCCn2ccnc2)ccc(Cl)c1Cl`, the AC40 is 21.3 µM.

As for `COc1ccc(NC(=O)C(OC(=O)Cn2cnc3c2c(=O)n(C)c(=O)n3C)c2ccccc2)cc1Cl` (stereo not given), the AC40 is 7.87 µM.

`O=C(Nc1ccc(N2CCOCC2)c(S(=O)(=O)Nc2cc(Cl)ccc2Cl)c1)c1cccnc1`: the AC40 is 0.681 µM.

On to `COc1ccc(C(=O)N2C[C@H]3[C@@H](c4ccccc42)[C@@H](CO)N3C(=O)c2ccc(F)cc2)cc1`, for which the AC40 is 0.631 µM.

For the molecule `CC(C)C#Cc1ccc2c(c1)O[C@H](CN(C)C(=O)Nc1ccccc1)[C@@H](C)CN([C@@H](C)CO)S2(=O)=O`, the AC40 is 2.08 µM.

`CCC(=O)N1N=C(c2ccc(NS(=O)(=O)c3ccc(C)cc3)cc2)CC1c1ccco1` (stereo not given): the AC40 was 4.52 µM.

As for `COc1ccc(S(=O)(=O)N(C)C[C@H]2Oc3ccc(NC(=O)Nc4ccc(C(F)(F)F)cc4)cc3C(=O)N([C@H](C)CO)C[C@H]2C)cc1`, the AC40 is 1.81 µM.

Take `S=C(NCCc1ccccc1)Nc1ccc(Cl)cc1Cl`: the AC40 was 5.71 µM.

As for `Clc1ccc2[nH]cc(-c3nnnn3-c3ccc4ccccc4c3)c2c1`, the AC40 was 6.75 µM.

On to `CCN(CC)S(=O)(=O)c1ccc(C)c(NCC(=O)Nc2ccc(C#N)c(Cl)c2)c1`, for which the AC40 is 1.77 µM.

Turning to `Cc1cc(C)nc(N/C(=N\S(=O)(=O)Cc2ccccc2)Nc2ccccc2Br)n1`, the AC40 was 8.51 µM.

Consider `CC(=O)N1CCSc2ccc(S(=O)(=O)Nc3ccc(C)cc3)cc21`, for which the AC40 was 4.2 µM.

As for `CCc1ccc(NS(=O)(=O)c2ccc(OC)c3ncccc23)cc1`, the AC40 is 0.362 µM.

On to `C[C@@H]1CN([C@@H](C)CO)C(=O)c2cc(N(C)C)ccc2O[C@H]1CN(C)Cc1ccc(C(=O)Nc2ccccc2N)cc1`, for which the AC40 is 9.78 µM.

With `CSc1ccc(S(=O)(=O)Nc2ccc(F)cc2)cc1`, the AC40 is 5.15 µM.

`COCCNC(=O)C[C@@H]1CC[C@H]2[C@H](COc3ccc(NC(=O)Cc4ccccc4)cc3C(=O)N2C)O1`: the AC40 is 1.34 µM.

Turning to `COc1ccc(NS(=O)(=O)c2cc(NC(=O)c3sccc3C)ccc2N2CCOCC2)cc1`, the AC40 is below 0.26 µM.

For `O=C(Nc1ccccc1O)c1ccc(NS(=O)(=O)c2cccc3cccnc23)cc1`, the AC40 is 14.8 µM.

In the case of `C[C@H](CO)N1C[C@H](C)[C@@H](CN(C)Cc2ccc(C(F)(F)F)cc2)Oc2c(cccc2N(C)C)C1=O`, the AC40 was 2.48 µM.

For the molecule `CCOc1cc(C)c(C(C)C)cc1S(=O)(=O)NCc1ccccn1`, the AC40 is 0.392 µM.

On to `COc1ccccc1NS(=O)(=O)c1cc(N/C(=N/S(=O)(=O)c2ccccc2)c2ccc(F)cc2)ccc1Cl`, for which the AC40 was 3.27 µM.

As to `Cc1ccc(S(=O)(=O)NCCN2CCOCC2)c(C)c1C`, the AC40 is 6.26 µM.

With `OC(c1ccc(Cl)c(F)c1)c1ncc(-c2cccc(F)c2)[nH]1` (stereo not given), the AC40 was 9.13 µM.

On to `C[C@@H]1CN([C@H](C)CO)C(=O)c2cccc(NS(=O)(=O)c3ccccc3)c2O[C@@H]1CN(C)Cc1ccc(C(=O)Nc2ccccc2N)cc1`, for which the AC40 is 17.2 µM.

On to `Cc1ccc(NC(=O)Cc2cn(C)c3ccccc23)cc1F`, for which the AC40 is 7.09 µM.

With `Cc1ccc(-c2n[nH]c(=O)c3ccccc23)cc1S(=O)(=O)NCCN1CCOCC1`, the AC40 is 15.4 µM.

In the case of `O=S(=O)(c1ccccc1)N1C[C@H]2[C@@H](c3ccccc31)[C@@H](CO)N2Cc1ccc2c(c1)OCO2`, the AC40 is 8.56 µM.

As for `Cc1cccc(NS(=O)(=O)c2cccc(C(=O)N3CCCCCCC3)c2)c1`, the AC40 was 1.8 µM.

`COc1ccc(S(=O)(=O)N(C)C[C@H]2Oc3ccc(NC(=O)Nc4ccc(C(F)(F)F)cc4)cc3C(=O)N([C@@H](C)CO)C[C@H]2C)cc1`: the AC40 was 8.41 µM.

With `CC(C)NC(=O)Nc1cccc2c1O[C@@H](CN(C)Cc1ccc(C(F)(F)F)cc1)[C@H](C)CN([C@H](C)CO)C2=O`, the AC40 is 1.52 µM.
